Earlier results in patent US8337481B2, “Method for treating otitis externa” (priority 2005, dated 2012).

| Compound | Biological Half Life |
| --- | --- |
| C[C@H]1C[C@@H]2[C@H]([C@@H](O)C[C@@]3(C)[C@H]2CC[C@]3(O)C(=O)CO)[C@@]2(C)C=CC(=O)C=C12 [Methyl-prednisolone, methylprednisolone] | 18-36 Hours |
| C[C@]12CCC(=O)C=C1CC[C@@H]1[C@@H]2[C@@H](O)C[C@@]2(C)[C@H]1CC[C@]2(O)C(=O)CO [hydrocortisone] | 8-12 Hours |
| C[C@]12C=CC(=O)C=C1CC[C@@H]1[C@@H]2[C@@H](O)C[C@@]2(C)[C@H]1CC[C@]2(O)C(=O)CO [prednisolone] | 18-36 Hours |
| C[C@]12C=CC(=O)C=C1CC[C@H]1[C@@H]3C[C@@H](O)[C@](O)(C(=O)CO)[C@@]3(C)C[C@H](O)[C@@]12F [triamcinolone] | 18-36 Hours |
